Measured values taken from ChEMBL document CHEMBL1828508, “Biphenyl-3-yl alkylcarbamates as fatty acid amide hydrolase (FAAH) inhibitors: steric effects of N-alkyl chain on rat plasma and liver stability” (Eur J Med Chem, 2011).

Experiments:
Plasma [1] = experiment: (§1) Metabolic stability of the compound in Wistar rat plasma assessed as half life at 1 uM by RP-HPLC analysis; type: ADME, cell-free; settings: 1 µM
[2] = Chemical stability of the compound in 0.01 M borate buffer assessed as half life at 1 uM and pH 9.0 by HPLC analysis; type: physicochemical
[3] = Chemical stability of the compound in 0.01 M borate buffer assessed as half life at 300 nM and pH 9.0 by HPLC analysis; type: physicochemical
[4] = Chemical stability of the compound in 0.01 M borate buffer assessed as half life at 100 nM and pH 9.0 by HPLC analysis; type: physicochemical
Plasma [5] = experiment: Hydrolytic rate constant, log k of the compound in Wistar rat plasma; type: ADME, cell-free
[6] = Metabolic stability of the compound in Wistar rat liver S9 fraction at 1 uM measured after 90 mins by RP-HPLC analysis; type: ADME, subcellular; settings: read-out: Stability
[7] = Chemical stability of the compound in 0.01 M PBS assessed as compound remaining at pH 7.4 by HPLC analysis; settings: buffer
[8] = Chemical stability of the compound in 0.01 M borate buffer assessed as half life at pH 9.0 by HPLC analysis; type: physicochemical; settings: for t1/2: buffer; for half-life: 0.01 M borate buffer
Liver [9] = experiment: (§2) Metabolic stability of the compound in Wistar rat liver S9 fraction assessed as half life at 1 uM by RP-HPLC analysis; type: ADME, subcellular; settings: s9, 1 µM
Liver [10] = experiment: Hydrolytic rate constant, log k of the compound in Wistar rat liver S9 fraction; type: ADME, subcellular
[11] = as §1; type: ADME, cell-free; settings: Wistar
[12] = as §2; type: ADME, subcellular; settings: Wistar, liver S9 fraction
Rattus norvegicus = experiment: In vivo displacement of [3H]-anandamide from rat brain FAAH after 30 mins by scintillation counting; type: functional; settings: read-out: ID50 (the source's name)
[13] = target: T1, Fatty-acid amide hydrolase 1 (Rattus norvegicus) (UniProt P97612); experiment: Selectivity index, ratio URB524 pIC50 to compound pIC50 for displacement of [3H]-anandamide from rat brain FAAH after 30 mins by scintillation counting
T1 sequence (whole entry): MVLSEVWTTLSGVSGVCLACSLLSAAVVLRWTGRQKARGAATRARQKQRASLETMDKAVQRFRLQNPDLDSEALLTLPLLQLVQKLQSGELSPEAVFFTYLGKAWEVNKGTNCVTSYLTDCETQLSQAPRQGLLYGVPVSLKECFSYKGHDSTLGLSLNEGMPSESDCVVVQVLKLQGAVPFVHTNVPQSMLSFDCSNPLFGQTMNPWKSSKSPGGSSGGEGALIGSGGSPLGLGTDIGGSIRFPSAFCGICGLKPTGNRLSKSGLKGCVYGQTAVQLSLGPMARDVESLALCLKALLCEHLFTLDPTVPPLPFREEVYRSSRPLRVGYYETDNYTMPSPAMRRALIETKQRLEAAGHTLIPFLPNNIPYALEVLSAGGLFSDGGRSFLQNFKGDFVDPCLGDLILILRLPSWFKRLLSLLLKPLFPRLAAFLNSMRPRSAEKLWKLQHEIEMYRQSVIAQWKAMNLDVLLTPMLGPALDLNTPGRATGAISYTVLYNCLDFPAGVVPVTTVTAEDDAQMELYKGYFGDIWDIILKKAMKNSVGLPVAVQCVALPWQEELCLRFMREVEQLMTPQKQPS

[14] = target: T2, Fatty-acid amide hydrolase 1 (Rattus norvegicus, UniProt P97612); experiment: Displacement of [3H]-anandamide from rat brain FAAH after 30 mins by scintillation counting
T2 sequence (P97612 whole entry): T1 sequence (whole entry)

Structure (SMILES) | t1/2 (Plasma [1]) [min] | half-life at 1 µM [2] [min] | half-life at 0.3 µM [3] [min] | half-life at 0.1 µM [4] [min] | Activity (Plasma [5]) | remaining at 1.5 h, 1 µM [6] [%] | Stability [7] [%] | t1/2 [8] [min] | t1/2 (Liver [9]) [min] | Activity (Liver [10]) | half-life [8] [min] | half-life at 1 µM [11] [min] | half-life at 1 µM [12] [min] | ED50 (Rattus norvegicus) [mg/kg] | Ratio pIC50 [13] | pIC50 [14]
O=C(NC12CC3CC(CC(C3)C1)C2)Oc1cccc(-c2ccccc2)c1 | 183.3 | 266 | 262 | 264 | -2.42 | 99.2 | 66.7 |  |  |  |  |  |  |  |  | 
O=C(NCCCCCCc1ccccc1)Oc1cccc(-c2ccccc2)c1 | 8.4 |  |  |  | -1.08 |  | 61.1 | 73.8 | 39.4 | -1.75 |  |  |  |  |  | 
O=C(NC1CCCC1)Oc1cccc(-c2ccccc2)c1 | 40 |  |  |  | -1.76 |  | 34.4 | 45.1 | 2.5 | -0.56 |  |  |  |  |  | 
NC(=O)c1cccc(-c2cccc(OC(=O)NCc3ccc4ccccc4c3)c2)c1 | 5.6 |  |  |  |  |  | 22.8 | 13.9 | 39 |  |  |  |  |  |  | 
NC(=O)c1cccc(-c2cccc(OC(=O)NC3CCCCC3)c2)c1 [URB-597] |  |  |  |  |  |  | 40.2 |  |  |  | 33 | 33 | 58.7 |  |  | 
O=C(NCCCCc1ccccc1)Oc1cccc(-c2ccccc2)c1 | 6.6 | 43.1 | 42 | 41.7 | -0.98 |  | 35.9 |  | 19.3 | -1.44 |  |  |  | 0.96 | 10 | 
O=C(NCc1ccc2ccccc2c1)Oc1cccc(-c2ccccc2)c1 | 1 |  |  |  | -0.17 |  | 18.4 | 23.9 | 27.5 | -1.6 |  |  |  |  |  | 
CCCCNC(=O)Oc1cccc(-c2ccccc2)c1 | 21.6 |  |  |  | -1.49 |  | 46.7 | 42.9 | 1.8 | -0.41 |  |  |  |  |  | 
O=C(NCCCCCCN1CCOCC1)Oc1cccc(-c2ccccc2)c1 | 8 |  |  |  | -1.06 |  | 30.9 | 33.4 | 13 | -1.27 |  |  |  |  |  | 
O=C(NCc1ccccc1)Oc1cccc(-c2ccccc2)c1 | 14.3 |  |  |  | -1.32 |  | 22.7 | 26.5 | 10.8 | -1.19 |  |  |  |  |  | 
CCCCCCNC(=O)Oc1cccc(-c2ccccc2)c1 | 7.5 |  |  |  | -1.03 |  | 46.7 | 68.3 | 8 | -1.06 |  |  |  |  |  | 
CC(C)NC(=O)Oc1cccc(-c2ccccc2)c1 | 20 |  |  |  | -1.46 |  | 34.6 | 61.8 | 1.9 | -0.45 |  |  |  |  |  | 
O=C(NCc1cccc2ccccc12)Oc1cccc(-c2ccccc2)c1 | 7.3 |  |  |  | -1.03 |  | 24.8 | 38.7 | 46.8 | -1.83 |  |  |  |  |  | 
NC(=O)c1cccc(-c2cccc(OC(=O)NCCCCc3ccccc3)c2)c1 | 4.2 |  |  |  |  |  | 18.8 | 30.3 | 46.9 |  |  |  |  |  |  | 9.48
O=C(NCCc1ccccc1)Oc1cccc(-c2ccccc2)c1 | 22.1 |  |  |  | -1.5 |  | 34.9 | 40 | 2.7 | -0.59 |  |  |  |  |  | 
O=C(NC1CCC1)Oc1cccc(-c2ccccc2)c1 | 19.9 |  |  |  | -1.46 |  | 22.6 | 27.5 | 2.5 | -0.56 |  |  |  |  |  | 
CNC(=O)Oc1cccc(-c2ccccc2)c1 | 3.8 |  |  |  | -0.74 |  | 33.9 | 43.8 | 7.4 | -1.03 |  |  |  |  |  | 
O=C(NCC1CCCCC1)Oc1cccc(-c2ccccc2)c1 | 15.3 |  |  |  | -1.35 |  | 65.4 | 104.8 | 9.8 | -1.15 |  |  |  |  |  | 
O=C(NC1CCCCC1)Oc1cccc(-c2ccccc2)c1 |  | 40.4 | 42.7 | 42.3 | -1.79 |  | 41.1 |  |  | -0.94 | 40.7 | 42.7 | 6 | 0.81 |  | 
O=C(NC1Cc2ccccc2C1)Oc1cccc(-c2ccccc2)c1 | 16.5 |  |  |  | -1.38 |  | 16.2 | 22.4 | 63.1 | -1.96 |  |  |  |  |  | 
